Measured values published in BigSolDB 2.1.

Cc1c(OCC(F)(F)F)ccnc1CS(=O)c1nc2ccccc2[nH]1 (stereo unspecified)
solubility (mole fraction)
Conditions	in 2-butanone	in MIBK	in acetone	in ethyl acetate	in isobutyl acetate	in isopropanol	in n-butanol	in n-butyl acetate	in n-pentanol	in n-propanol
283.15 K	0.00289	0.0013	0.00249	0.00137	0.000784	0.00082	0.0012	0.000987	0.00138	0.00166
288.15 K	0.00349	0.00154	–	0.00164	0.000965	0.000922	0.00166	0.0012	0.00184	0.00206
290.15 K	–	–	0.0031	–	–	–	–	–	–	–
293.15 K	0.00412	0.00183	–	0.002	0.00117	0.00124	0.00215	0.00144	0.00227	0.0026
297.15 K	–	–	0.00395	–	–	–	–	–	–	–
298.15 K	0.00489	0.00216	–	0.00245	0.00136	0.00161	0.0027	0.00172	0.00281	0.00314
303.15 K	0.00578	0.00255	–	0.00291	0.00161	0.00202	0.00336	0.00195	0.00344	0.00388
304.15 K	–	–	0.00494	–	–	–	–	–	–	–
308.15 K	0.00697	0.00307	–	0.00343	0.00193	0.00261	0.00419	0.00232	0.00412	0.00468
311.15 K	–	–	0.00626	–	–	–	–	–	–	–
313.15 K	0.0083	0.00362	–	0.00416	0.00228	0.00333	0.00515	0.00271	0.00518	0.00588
318.15 K	–	–	0.00801	0.00469	–	0.00422	–	–	–	–
